Results reported in publication PMC7177638 (International Journal of Molecular Sciences, 2020).

Experiments:
[1] = tested on: HCT-15 human colon carcinoma cells; assay: MTT cytotoxicity test, 72 h; format: cell-based; conditions: HCT-15, MTT
Method: (§1) The in vitro cytotoxic activities of compounds 1–6 were assayed on a panel of human cancer cell lines containing examples of pancreatic (PSN-1), colon (HCT-15 and LoVo), cervical (A431), and ovarian (2008) cancers. Cisplatin and oxaliplatin were used as reference compounds and were tested under the same experimental conditions.
(§2) Human colon (HCT-15 and LoVo) and pancreatic (PSN-1) carcinoma cell lines were obtained from the American Type Culture Collection (ATCC, RocKville, MD). The 2008 human ovarian cancer cells were kindly provided by Prof. G. Marverti (Dept. of Biomedical Science of Modena University, Italy). Human cervical carcinoma (A431) cells were kindly provided by Prof. F. Zunino (Division of Experimental Oncology B, Istituto Nazionale dei Tumori, Milan, Italy). […] Cell lines were maintained in the logarithmic phase at 37 °C in a 5% carbon dioxide atmosphere using RPMI-1640 or F-12 culture medium (Euroclone) containing 10% fetal calf serum (Euroclone, Milan, Italy), antibiotics (50 units per mL penicillin and 50 μg mL^−1 streptomycin), and 2 mM L-glutamine.
(§3) The growth inhibitory effect toward the tumor cell lines was evaluated by the MTT test. Briefly, 3-8·10^3 cells/well, depending upon the growth characteristics of the cell lines, were seeded in 96-well microplates in growth medium (100 µL) and then incubated at 37 °C in a 5% carbon dioxide atmosphere. After 24 h, the medium was removed and replaced with a fresh one containing the compound to be tested at the appropriate concentration. Triplicate cultures were established for each treatment. After 72 h, each well was treated with 10 µL of a 5 mg·mL^−1 MTT (3-(4,5-dimethylthiazol-2-yl)-2,5-diphenyltetrazolium bromide) saline solution and, after 5 h of incubation, 100 µL of a sodium dodecylsulfate (SDS) solution in HCl 0.01 M were added. Following an overnight incubation, the inhibition of cell growth induced by the tested complexes was evaluated by measuring the absorbance of each well at 570 nm using a Bio-Rad 680 microplate reader (Bio-Rad Laboratories S.r.l., Segrate (MI), Italy).

[2] = tested on: LoVo human colon carcinoma cells; assay: MTT cytotoxicity test, 72 h; format: cell-based
Method: as §1, §2, §3

[3] = tested on: PSN-1 human pancreatic carcinoma cells; assay: MTT cytotoxicity test, 72 h; format: cell-based; conditions: PSN-1, MTT
Method: as §1, §2, §3

[4] = tested on: 2008 human ovarian cancer cells; assay: MTT cytotoxicity test, 72 h; format: cell-based; conditions: 2008, MTT
Method: as §1, §2, §3

[5] = tested on: A431 human cervical carcinoma cells; assay: MTT cytotoxicity test, 72 h; format: cell-based
Method: as §1, §2, §3

LoVo-OXP cancer cells = assay: MTT cytotoxicity test, 72 h, oxaliplatin-resistant cells; format: cell-based, human; conditions: for IC50: LoVo OXP
Source text: as §2, §3

[6] = tested on: human A431 cancer cell spheroids; assay: Cytotoxicity towards 3D spheroids, acid phosphatase (APH) assay; format: cell-based; conditions: A431 3D spheroids, 72 h; for IC50: APH assay
Source text: The remarkable cell-killing effect observed against human A431 squamous cervical carcinoma two-dimensional (2D) cultured cells prompted us to evaluate the in vitro antitumor activity of compounds 1–6 on three-dimensional (3D) cell cultures. As opposed to 2D monolayer cultures, cells growing in 3D culture systems form spheroids that comprise cells in various stages. […] Such cellular heterogeneity resembles that of in vivo tumors, making 3D cell cultures more predictive than conventional 2D monolayer cultures in screening antitumor drugs.
Spheroid cultures were obtained by seeding 2.5 × 10^3 A431 cancer cells/well in a round bottom non-treated tissue culture 96 well-plate (Greiner Bio-one, Kremsmünster, Austria) in phenol red free RPMI-1640 medium (Sigma Chemical Co.) containing 10% fetal calf serum (FCS) and supplemented with 20% methyl cellulose stock solution.
An APH modified assay was used for determining cell viability in 3D spheroids, as previously described. IC50 values were calculated with a four parameter logistic (4-PL) model.

A431 cells = assay: Cellular accumulation of Pt (GF-AAS); format: cell-based, human; conditions: 24 h, 0.5 μM
Method: It is clearly recognized that the antitumor activity of platinum-based anticancer drugs depends on the ability of compounds to accumulate into cancer cells and to bind to nuclear DNA, thus inducing transcription inhibition and cell death. Therefore, we investigated the cellular uptake as well as the DNA binding ability of 1–6 in human A431cervical cancer cells. Cells were treated for 24 h with 0.5 μM of 1–6 or CDDP and the total cellular and DNA-bound platinum contents were quantified using GF–AAS analysis. The results, expressed as ng of metal per 10^6 cells, in the case of cellular uptake (A) and as pg of metal per μg of DNA, in the case of DNA-bound platinum (B) are summarized in Figure 9.
A431 cells (2·10^6) were seeded in 75 cm^2 flasks in growth medium (20 mL). After 24 h, the medium was replaced and the cells incubated for 24 h in the presence of the tested complexes.
Cells monolayers were washed twice with cold phosphate-buffered saline (PBS), harvested, and counted. Samples were subjected to three freeze–thaw cycles at −80 °C, and then vigorously vortexed. The samples were treated with highly pure nitric acid (1 mL; Pt ≤ 0.01 mg kg^−1, Trace-SELECT Ultra, Sigma Chemical Co.) and transferred into a microwave Teflon vessel. Subsequently, samples were submitted to standard mineralization procedures. Samples were analyzed for platinum by using a Varian AA Duo graphite furnace atomic absorption spectrometer (Varian, Palo Alto, CA; USA) at a wavelength of […]. The calibration curve was obtained using known concentrations of standard solutions purchased from Sigma Chemical Co.

Compound | IC50 [1] | IC50 [2] | IC50 [3] | IC50 [4] | IC50 [5] | effectiveness against sensitive (LoVo) versus resistant (LoVo-OXP) cells (LoVo-OXP cancer cells) | IC50 (LoVo-OXP cancer cells) | efficacy in decreasing cancer spheroid viability, times higher than CDDP [6] | efficacy in decreasing cancer spheroid viability, times higher than OXP [6] | IC50 [6] | cellular uptake (cellular internalization of Pt), in words (A431 cells)
NC1CC=CCC1N.O=C([O-])C(=O)[O-].O=C([O-])c1ccccc1.O=C([O-])c1ccccc1.[Pt+4] (mixture of isomers) [Complex 3, cis,trans,cis-[Pt(OXA)(BzO)2(DACHEX)]] | 0.41 ± 0.1 µM | 0.07 ± 0.02 µM | 0.54 ± 0.3 µM | 0.14 ± 0.03 µM | 0.16 ± 0.07 µM | equally effective | 0.09 ± 0.02 µM | about 32 | ~20 | 1.8 ± 0.4 µM | the most effective in entering cancer cells
CC(=O)[O][Pt]1([Cl])[O]C(=O)C(=O)[O]1.NC1CC=CCC1N (racemic) [Complex 5, cis,trans,cis-[Pt(OXA)(AcO)Cl(DACHEX)]] | 1.97 ± 0.4 µM | 0.25 ± 0.05 µM | 3.58 ± 1.4 µM | 0.93 ± 0.3 µM | 1.51 ± 0.6 µM |  | > 2 µM |  |  | 26.4 ± 5.5 µM | the worst in crossing the cell plasmalemma
NC1CC=CCC1N.O=C1[O][Pt]([OH])([Cl])[O]C1=O (racemic) [Complex 6, cis,trans,cis-[Pt(OXA)(OH)Cl(DACHEX)]] | 1.67 ± 0.4 µM | 0.66 ± 0.02 µM | 5.25 ± 1.2 µM | 1.87 ± 0.4 µM | 1.31 ± 0.7 µM |  | > 2 µM |  |  | 30.2 ± 3.8 µM | the worst in crossing the cell plasmalemma
